The values that follow come from patent US20240124434A1, “ATF6 INHIBITORS AND USES THEREOF” (Altos Labs, Inc., priority 2018, published 2024).

In brackets after ≈: the same amount, converted by molar mass. Like-named read-outs stand apart in the source and are kept apart here.

One data set relates to ATF6. Put plainly: ERSE ATF6-luciferase reporter assay (thapsigargin-induced ER stress). The class given is cell-based, human. To be noted: Homo sapiens, U2OS, thapsigargin-induced ER stress, U2-OS ATF6 luc reporter cells; for inhibition at 1 µM: 8 h, 8 hr. For orientation: A reporter such as luciferase makes a cellular process visible.
Data set [1] can be described thus: In vitro microsomal stability, human liver microsomes. To be noted: for half-life at […], 1 µM / half-life at 1 μM: human, read-out: T1/2 @ hLM; for half-life at […], 1 µM / microsomal CLint at […], 1 µM / half-life at 1 μM: human liver microsomes, pH 7.4; for microsomal CLint at […], 1 µM: intrinsic clearance, read-out: Clint @ hLM; for Rem. @ hLM (%): remaining fraction after 30 min, 1 μM compound, 0.5 mg/mL human liver microsomes, 1 mM NADPH. The class given is in vitro ADME. Here is the method:
(§1) Compounds were incubated at a final concentration of 1 μM with 0.5 mg/mL human liver microsomes (hLM) (#HMMCPL; Thermo), mouse liver microsomes (mLM) (#MSMCPL; Thermo) or rat liver microsomes (rLM) (#RTMCPL; Thermo) and 1 mM reduced dihydronicotinamide-adenine dinucleotide phosphate (NADPH) (#N1630; Sigma) in 100 mM phosphate buffer (pH 7.4) at 37° C. The reactions were terminated at 0, 5, 15 and 30 min by the addition of cold acetonitrile containing 50 ng/mL propranolol as an internal standard. […] Verapamil hydrochloride (#V4369 Aldrich) was used as a positive control in all studies.
Background: Liver microsomes are a subcellular fraction often used to study metabolism.

Data set [2] in a line: In vitro microsomal stability, mouse liver microsomes. The class given is in vitro ADME. Conditions: for microsomal CLint at […], 1 µM: intrinsic clearance, read-out: Clint @ mLM; for Rem. @ mLM (%): remaining fraction after 30 min, 1 μM compound, 0.5 mg/mL mouse liver microsomes, 1 mM NADPH. Here is the method:
as §1

The nature of data set [3]: In vitro microsomal stability, rat liver microsomes. The class given is in vitro ADME. Conditions: for microsomal CLint at 1 μM / half-life at 1 μM / microsomal CLint at […], 1 µM / half-life at […], 1 µM: pH 7.4, rat liver microsomes; for microsomal CLint at 1 μM / microsomal CLint at […], 1 µM: intrinsic clearance, read-out: Clint @ rLM; for half-life at 1 μM / half-life at […], 1 µM: rat, read-out: T1/2 @ rLM; for Rem. @ rLM (%): remaining fraction after 30 min, 1 μM compound, 0.5 mg/mL rat liver microsomes, 1 mM NADPH. As to the method:
as §1

A short description of data set [4]: Kinetic solubility (nephelometry). The class given is physicochemical. To be noted: aqueous buffer, kinetic from dmso stock; PBS pH 7.4, 1% DMSO, 1 hour at 37° C., light scattering at 625 nm. Here is the method: Concentration (μM) was then calculated by segmental regression. Amiodarone (#A8423 Aldrich) was used as positive control.
Setting [5] is: 1 μM test compound, read-out: Inh. ATF6-Luc @ 1 μM [%].
[6] abbreviates: dose-response 30 μM to 1 nM, read-out: IC50 ATF6-Luc reporter.
[7] abbreviates: mouse, mouse liver microsomes, pH 7.4, read-out: T1/2 @ mLM.
Setting [8] is: read-out: Inh. ATF6-Luc @ 1 μM [%], 1 μM test compound.
The mark [9] stands for this setting: read-out: IC50 ATF6-Luc reporter [μM], dose-response 30 μM to 1 nM.

Usually IC50 stands for the concentration needed to halve the response being measured. Usually kinetic solubility stands for solubility judged after dilution from a stock solution rather than from solid. For the compound `CN(C(=O)c1cc(-c2ccccn2)on1)c1cnn(Cc2ccc(C(F)(F)F)cc2C(F)(F)F)c1` [Compound 103, N-(1-(2,4-bis(trifluoromethyl)benzyl)-1H-pyrazol-4-yl)-N-methyl-5-(pyridin-2-yl)isoxazole-3-carboxamide], the inhibition at 1 µM with ATF6 (setting [5]) lay in the range of 25 to 50%. In addition, the IC50 in the data set on ATF6 (setting [6]) fell in the range of 1 to 10 µM. In data set [1], the half-life at […], 1 µM was 5.38 min; the microsomal CLint at […], 1 µM amounted to 258 µL/min/mg; the “Rem. @ hLM (%)” value stood at 2.1%. The half-life at […], 1 µM in data set [2] (setting [7]) amounted to 5.12 min. Further, the microsomal CLint at […], 1 µM in data set [2] (pH 7.4, mouse liver microsomes) was 271 µL/min/mg. Also, in data set [2], the “Rem. @ mLM (%)” value was 0.94%. Further, in data set [3], the microsomal CLint at 1 μM is 191 µL/min/mg, the half-life at 1 μM came to 7.24 min and the “Rem. @ rLM (%)” value came to 5.24%. For the same compound, in data set [4], the kinetic solubility at 1 h stood at 9.37 µM (≈ 4.64 µg/mL).
On to `O=C(Nc1cnn(C2CCc3ccccc32)c1)c1cc(-c2ccco2)on1` (stereo not shown) [Compound 19, N-(1-(2,3-dihydro-1H-inden-1-yl)-1H-pyrazol-4-yl)-5-(furan-2-yl) isoxazole-3-carboxamide], for which the inhibition at 1 µM in the data set with ATF6 (setting [5]) is less than 25%. Moreover, the IC50 in the data set on ATF6 (setting [6]) is more than 10 µM. Moreover, the kinetic solubility at 1 h in data set [4] amounted to 9.37 µM (≈ 3.38 µg/mL).
On to `CC(c1ccc(C(F)(F)F)cc1C(F)(F)F)n1cc(NC(=O)c2cc(-c3cccs3)on2)cn1` (stereo not shown) [Compound 9, N-(1-(1-(2,4-bis(trifluoromethyl)phenyl)-ethyl)-1H-pyrazol-4-yl)-5-(thiophen-2-yl)isoxazole-3-carboxamide], for which, in the data set on ATF6 (setting [5]), the inhibition at 1 µM was less than 25%. Also, the IC50 in the data set with ATF6 (setting [6]) fell in the range of 1 to 10 µM. The compound also yielded a kinetic solubility at 1 h in data set [4] of 8.9 µM (≈ 4.45 µg/mL).
In the case of `C[C@H](c1ccc(C(F)(F)F)cc1C(F)(F)F)n1cc(NC(=O)c2cnc(-c3ccccn3)s2)cn1` [Compound 104, (R)—N-(1-(1-(2,4-bis(trifluoromethyl)phenyl)ethyl)-1H-pyrazol-4-yl)-2-(pyridin-2-yl)thiazole-5-carboxamide], the inhibition at 1 µM in the data set with ATF6 (setting [8]) was in the range of 25 to 50%. The IC50 with ATF6 (setting [9]) lay within 1 to 10 µM. In data set [1], the half-life at […], 1 µM stood at 73.2 min; the microsomal CLint at […], 1 µM is 18.9 µL/min/mg; the “Rem. @ hLM (%)” value amounted to 76.44%. Moreover, in data set [2] (setting [7]), the half-life at […], 1 µM was 108 min. Also, in data set [2] (pH 7.4, mouse liver microsomes), the microsomal CLint at […], 1 µM came to 12.9 µL/min/mg. In data set [2], the “Rem. @ mLM (%)” value was found to be 83.18%. Further, in data set [3], the microsomal CLint at 1 μM was determined as 3.32 µL/min/mg, the half-life at 1 μM was determined as 418 min and the “Rem. @ rLM (%)” value was 92.9%. Further, the kinetic solubility at 1 h in data set [4] is 2.34 µM (≈ 1.2 µg/mL).
Turning to `Cc1c(NC(=O)c2cc(-c3ccccn3)on2)cnn1[C@H](C)c1ccc(C(F)(F)F)cc1C(F)(F)F` [Compound 97, (R)—N-(1-(1-(2,4-bis(trifluoromethyl)phenyl)ethyl)-5-methyl-1H-pyrazol-4-yl)-5-(pyridin-2-yl)isoxazole-3-carboxamide], the inhibition at 1 µM in the data set with ATF6 (setting [5]) was in the range of 25 to 50%. The IC50 in the data set on ATF6 (setting [6]) was 1 to 10 µM. Also, the half-life at 1 μM in data set [1] is 53.6 min; in data set [2] (setting [7]), 26.6 min; in data set [3] it was 58.7 min. Further, the microsomal CLint at […], 1 µM in data set [1] came to 25.9 µL/min/mg; in data set [2] (pH 7.4, mouse liver microsomes), 52.2 µL/min/mg; in data set [3], 23.6 µL/min/mg. In data set [1], the “Rem. @ hLM (%)” value is reported as 59.3%. Also, the “Rem. @ mLM (%)” value in data set [2] is recorded as 44.5%. Besides, the “Rem. @ rLM (%)” value in data set [3] is on record as 64.4%. Besides, the solubility (kinetic) at 1 h in data set [4] came out at 2.92 µM (≈ 1.49 µg/mL).
As for `Cc1ccc(-c2cc(C(=O)Nc3cnn(Cc4ccc(C(F)(F)F)cc4C(F)(F)F)c3)no2)o1` [Compound 22, N-(1-(2,4-bis(trifluoromethyl)benzyl)-1H-pyrazol-4-yl)-5-(5-methylfuran-2-yl)isoxazole-3-carboxamide], the inhibition at 1 µM with ATF6 (setting [5]) is less than 25%. For the same compound, the IC50 in the data set on ATF6 (setting [6]) lay in the range of 1 to 10 µM. In data set [1], the half-life at 1 μM turned out to be 6.5 min; the microsomal CLint at […], 1 µM came out at 212 µL/min/mg; the “Rem. @ hLM (%)” value came out at 3.7%. Also, the half-life at […], 1 µM in data set [2] (setting [7]) was 6.1 min. In addition, the microsomal CLint at […], 1 µM in data set [2] (pH 7.4, mouse liver microsomes) is 228 µL/min/mg. For the same compound, the “Rem. @ mLM (%)” value in data set [2] stood at 3.3%. For the same compound, in data set [3], the microsomal CLint at […], 1 µM was determined as 204 µL/min/mg; the half-life at […], 1 µM is 6.8 min; the “Rem. @ rLM (%)” value turned out to be 4.5%.
`CC(c1ccc(C(F)(F)F)cc1C(F)(F)F)n1cc(NC(=O)c2cc(-c3ccco3)on2)cn1` (stereo not shown) [Compound 12, N-(1-{1-[2,4-bis(trifluoromethyl)phenyl]ethyl}-1H-pyrazol-4-yl)-5-(furan-2-yl) isoxazole-3-carboxamide]: the inhibition at 1 µM in the data set with ATF6 (setting [5]) was more than 50%. The IC50 with ATF6 (setting [6]) was less than 1 µM. Moreover, in data set [1], the half-life at 1 μM came to 29.9 min; the microsomal CLint at […], 1 µM came out at 46 µL/min/mg; the “Rem. @ hLM (%)” value was 46.1%. Besides, in data set [2] (setting [7]), the half-life at […], 1 µM was found to be 4.6 min. Moreover, the microsomal CLint at […], 1 µM in data set [2] (pH 7.4, mouse liver microsomes) came to 302 µL/min/mg. Also, in data set [2], the “Rem. @ mLM (%)” value is 1.02%. In data set [3], the microsomal CLint at […], 1 µM turned out to be 291 µL/min/mg; the half-life at […], 1 µM was 4.8 min; the “Rem. @ rLM (%)” value is 0.77%.
`O=C(Nc1cnn(-c2ccc(C(F)(F)F)cc2C(F)(F)F)c1)c1cc(-c2ccco2)on1` [Compound 27, N-(1-(2,4-bis(trifluoromethyl)phenyl)-1H-pyrazol-4-yl)-5-(furan-2-yl)isoxazole-3-carboxamide]: the inhibition at 1 µM in the data set with ATF6 (setting [5]) is less than 25%. In addition, in the data set with ATF6 (setting [6]), the IC50 is more than 10 µM.
Turning to `Cc1nn(Cc2ccc(C(F)(F)F)cc2C(F)(F)F)cc1NC(=O)c1cc(-c2ccccn2)on1` [Compound 29, N-(1-(2,4-bis(trifluoromethyl)benzyl)-3-methyl-1H-pyrazol-4-yl)-5-(pyridin-2-yl)isoxazole-3-carboxamide], the inhibition at 1 µM in the data set on ATF6 (setting [5]) is less than 25%. The IC50 in the data set with ATF6 (setting [6]) was more than 10 µM.
Take `C[C@H](c1ccc(C(F)(F)F)cc1C(F)(F)F)n1cc(NC(=O)c2nnc(-c3ccncn3)s2)cn1` [Compound 156, (R)—N-(1-(1-(2,4-bis(trifluoromethyl)phenyl)ethyl)-1H-pyrazol-4-yl)-5-(pyrimidin-4-yl)-1,3,4-thiadiazole-2-carboxamide]: the inhibition at 1 µM in the data set with ATF6 (setting [5]) lay in the range of 25 to 50%. Further, the IC50 in the data set on ATF6 (setting [6]) is less than 1 µM.
The corresponding values for `O=C(Nc1cnn(Cc2ccc(C(F)(F)F)cc2C(F)(F)F)c1)c1ccon1` [Compound 23, N-(1-(2,4-bis(trifluoromethyl)benzyl)-1H-pyrazol-4-yl)isoxazole-3-carboxamide] are less than 25% and more than 10 µM.
As to `O=C(Nc1cnn(C2CCc3ccccc32)c1)c1nnc(-c2ccco2)s1` (stereo not shown) [Compound 144, N-(1-(2,3-dihydro-1H-inden-1-yl)-1H-pyrazol-4-yl)-5-(furan-2-yl)-1,3,4-thiadiazole-2-carboxamide], in the data set with ATF6 (setting [5]), the inhibition at 1 µM was less than 25%. The IC50 in the data set with ATF6 (setting [6]) was more than 10 µM.
As for `C[C@H](c1ccc(C(F)(F)F)cc1F)n1cc(NC(=O)c2cc(-c3ccccn3)on2)cn1` [Compound 108, (R)—N-(1-(1-(2-fluoro-4-(trifluoromethyl)phenyl)ethyl)-1H-pyrazol-4-yl)-5-(pyridine-2-yl)isoxazole-3-carboxamide], the inhibition at 1 µM with ATF6 (setting [5]) is less than 25%. The IC50 in the data set on ATF6 (setting [6]) was more than 10 µM.
Turning to `Cc1nn(-c2ccc(C(F)(F)F)cc2C(F)(F)F)cc1NC(=O)c1cc(-c2ccco2)on1` [Compound 94, N-(1-(2,4-bis(trifluoromethyl)phenyl)-3-methyl-1H-pyrazol-4-yl)-5-(furan-2-yl)isoxazole-3-carboxamide], in the data set on ATF6 (setting [5]), the inhibition at 1 µM is less than 25%. Moreover, the IC50 in the data set on ATF6 (setting [6]) was more than 10 µM.
In the case of `O=C(Nc1cnn(Cc2cc(C(F)(F)F)cc(C(F)(F)F)c2)c1)c1cc(-c2ccco2)on1` [Compound 28, N-(1-(3,5-bis(trifluoromethyl)benzyl)-1H-pyrazole-4-yl)-5-(furan-2-yl)isoxazole-3-carboxamide], in the data set with ATF6 (setting [5]), the inhibition at 1 µM was less than 25%. Also, in the data set on ATF6 (setting [6]), the concentration for half-maximal inhibition (IC50) is more than 10 µM.
For `C[C@@H](c1ccc(C(F)(F)F)cc1C(F)(F)F)n1cc(NC(=O)c2cc(-c3ccccn3)no2)cn1` [Compound 77, (S)—N-(1-(1-(2,4-bis(trifluoromethyl)phenyl)ethyl)-1H-pyrazol-4-yl)-3-(pyridin-2-yl)isoxazole-5-carboxamide], the inhibition at 1 µM in the data set on ATF6 (setting [8]) is less than 25%. For the same compound, the IC50 in the data set with ATF6 (setting [9]) was more than 10 µM.
